Drawing on PubChem BioAssay AID256 (DTP/NCI, 2004), this text covers T/C for 16 compounds.

Where “and” joins values, the source holds several entries; their conditions need not be identical. Equal values may be shown once. Inconclusive results and toxic doses are left out.

The assay has as its system CD2F1 mice, L1210 leukemia ip, survival T/C. Briefly: NCI In Vivo Anticancer Drug Screen. Data for tumor model L1210 Leukemia (intraperitoneal) in CD2F1 (CDF1) mice. The note with it: higher = longer survival. A digest of the protocol: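 Activity against a transplanted murine tumor was judged by comparing the compound group with a vehicle group. The outcome in the treated animals was divided by that in the controls.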

The mark [1] stands for this setting: endpoint: mean survival time, dose: 50.0 mg/kg/injection, schedule: Q01DX009 (ip), vehicle: saline with Tween-80.
Where [2] appears, read: endpoint: mean survival time, dose: 100.0 mg/kg/injection, schedule: Q01DX009 (ip), vehicle: saline with Tween-80.
Setting [3] is: endpoint: mean survival time, dose: 200.0 mg/kg/injection, schedule: Q01DX009 (ip), vehicle: saline with Tween-80.
Where [4] appears, read: endpoint: mean survival time, dose: 100.0 mg/kg/injection, schedule: Q04DX003 (ip), vehicle: saline with Tween-80.
[5] abbreviates: endpoint: mean survival time, dose: 200.0 mg/kg/injection, schedule: Q04DX003 (ip), vehicle: saline with Tween-80.
[6] abbreviates: endpoint: mean survival time, dose: 400.0 mg/kg/injection, schedule: Q04DX003 (ip), vehicle: saline with Tween-80.
[7] abbreviates: endpoint: mean survival time, dose: 100.0 mg/kg/injection, schedule: Q04DX002 (ip), vehicle: saline with Tween-80.
The mark [8] stands for this setting: endpoint: mean survival time, dose: 200.0 mg/kg/injection, schedule: Q04DX002 (ip), vehicle: saline with Tween-80.
[9] abbreviates: endpoint: mean survival time, dose: 400.0 mg/kg/injection, schedule: Q04DX002 (ip), vehicle: saline with Tween-80.

For `N#Cc1c(-c2ccc(F)cc2)c(-c2ccc(F)cc2)nn(CCO)c1=O`, the T/C was 98 % of control and 100 % of control (endpoint: median survival time, dose: 12.5 mg/kg/injection, schedule: Q01DX005 (ip), vehicle: distilled water + Tween-80); 98 % of control and 100 % of control (endpoint: median survival time, dose: 25.0 mg/kg/injection, schedule: Q01DX005 (ip), vehicle: distilled water + Tween-80); 102 % of control and 104 % of control (endpoint: median survival time, dose: 50.0 mg/kg/injection, schedule: Q01DX005 (ip), vehicle: distilled water + Tween-80); 106 % of control and 111 % of control (endpoint: median survival time, dose: 72.0 mg/kg/injection, schedule: Q01DX005 (ip), vehicle: water); 107 % of control (endpoint: median survival time, dose: 100.0 mg/kg/injection, schedule: Q01DX005 (ip), vehicle: distilled water + Tween-80); 118 % of control (endpoint: median survival time, dose: 108.0 mg/kg/injection, schedule: Q01DX005 (ip), vehicle: distilled water + Tween-80). Also, the T/C was 121 % of control and 123 % of control (endpoint: median survival time, dose: 120.0 mg/kg/injection, schedule: Q01DX005 (ip), vehicle: water); 124 % of control (endpoint: median survival time, dose: 180.0 mg/kg/injection, schedule: Q01DX005 (ip), vehicle: distilled water + Tween-80); 110 % of control (endpoint: median survival time, dose: 200.0 mg/kg/injection, schedule: Q01DX005 (ip), vehicle: distilled water + Tween-80); 325 % of control (endpoint: median survival time, dose: 333.3 mg/kg/injection, schedule: Q01DX005 (ip), vehicle: water); 196 % of control (endpoint: median survival time, dose: 333.33 mg/kg/injection, schedule: Q01DX005 (ip), vehicle: water); 204 % of control (endpoint: median survival time, dose: 500.0 mg/kg/injection, schedule: Q01DX005 (ip), vehicle: distilled water + Tween-80). The T/C (endpoint: median survival time, dose: 555.55 mg/kg/injection, schedule: Q01DX005 (ip), vehicle: water) was 264 % of control.

In the case of `CCCC/C=C\C(=O)OCC`, the T/C is 104 % of control under setting [1], 101 % of control under setting [2] and 104 % of control under setting [3].

With `Cc1cc(C)c2[nH]c(=O)c(C)c(C)c2c1`, the T/C (endpoint: mean survival time, dose: 100.0 mg/kg/injection, schedule: Q01DX001 (ip), vehicle: saline) was 96 % of control; the T/C (endpoint: mean survival time, dose: 200.0 mg/kg/injection, schedule: Q01DX001 (ip), vehicle: saline) is 96 % of control; the T/C (endpoint: mean survival time, dose: 400.0 mg/kg/injection, schedule: Q01DX001 (ip), vehicle: saline) is 93 % of control.

Turning to `O=C(NC(C(=O)O)c1ccccc1)OCc1ccccc1` (configuration not stated), the T/C runs as follows: under setting [4], 102 % of control; under setting [5], 107 % of control; under setting [6], 97 % of control.

As to `NC(=O)c1[nH]cnc1O`, the T/C (endpoint: median survival time, dose: 25.0 mg/kg/injection, schedule: Q01DX005 (ip), vehicle: saline with Tween-80) was 109 % of control and 110 % of control; the T/C (endpoint: median survival time, dose: 50.0 mg/kg/injection, schedule: Q01DX005 (ip), vehicle: saline with Tween-80) was 113 % of control and 112 % of control; the T/C (endpoint: median survival time, dose: 100.0 mg/kg/injection, schedule: Q01DX005 (ip), vehicle: saline with Tween-80) is 116 % of control and 119 % of control; the T/C (endpoint: median survival time, dose: 144.0 mg/kg/injection, schedule: Q01DX005 (ip), vehicle: saline with Tween-80) is 117 % of control; the T/C (endpoint: median survival time, dose: 200.0 mg/kg/injection, schedule: Q01DX005 (ip), vehicle: saline with Tween-80) was 118 % of control and 120 % of control; the T/C (endpoint: median survival time, dose: 400.0 mg/kg/injection, schedule: Q01DX005 (ip), vehicle: saline with Tween-80) is 120 % of control.

On to `CCOC(=O)N(C)c1ccc(Cl)cc1C(N)=O`, for which the T/C runs as follows: under setting [7], 101 % of control; under setting [8], 97 % of control; under setting [9], 118 % of control.

Regarding `O=C(CN1CCCCC1Cl)c1ccccc1` (configuration not stated), the T/C by setting is: (endpoint: mean survival time, dose: 25.0 mg/kg/injection, schedule: Q01DX009 (ip), vehicle: saline with Tween-80) 102 % of control; under setting [1], 96 % of control; under setting [2], 102 % of control.

`Nn1[nH]c(=O)c2nc[nH]c2c1=O`: the T/C (endpoint: median survival time, dose: 15.0 mg/kg/injection, schedule: Q01DX005 (ip), vehicle: saline with Tween-80) is 103 % of control; the T/C (endpoint: median survival time, dose: 30.0 mg/kg/injection, schedule: Q01DX005 (ip), vehicle: saline with Tween-80) was 111 % of control; the T/C (endpoint: median survival time, dose: 60.0 mg/kg/injection, schedule: Q01DX005 (ip), vehicle: saline with Tween-80) is 102 % of control.

On to `CC[PH+](CC)CC[S-].CC[PH+](CC)CC[S-].[Au+].[Au+]`, for which the T/C runs as follows: (endpoint: mean survival time, dose: 2.5 mg/kg/injection, schedule: Q01DX009 (ip), vehicle: Klucel (hydroxypropylcellulose) (HPC)) 102 % of control and 107 % of control; (endpoint: mean survival time, dose: 5.0 mg/kg/injection, schedule: Q01DX009 (ip), vehicle: Klucel (hydroxypropylcellulose) (HPC)) 95 % of control and 106 % of control; (endpoint: mean survival time, dose: 10.0 mg/kg/injection, schedule: Q01DX009 (ip), vehicle: Klucel (hydroxypropylcellulose) (HPC)) 92 % of control and 109 % of control; (endpoint: mean survival time, dose: 20.0 mg/kg/injection, schedule: Q01DX009 (ip), vehicle: Klucel (hydroxypropylcellulose) (HPC)) 97 % of control and 109 % of control; (endpoint: mean survival time, dose: 40.0 mg/kg/injection, schedule: Q01DX009 (ip), vehicle: Klucel (hydroxypropylcellulose) (HPC)) 89 % of control; (endpoint: mean survival time, dose: 80.0 mg/kg/injection, schedule: Q01DX009 (ip), vehicle: Klucel (hydroxypropylcellulose) (HPC)) 101 % of control.

`O=C(O)CSc1c(Cl)c(=O)oc2ccc(Cl)cc12`: the T/C runs as follows: (endpoint: median survival time, dose: 6.25 mg/kg/injection, schedule: Q01DX009 (ip), vehicle: Klucel (hydroxypropylcellulose) (HPC)) 101 % of control; (endpoint: median survival time, dose: 12.5 mg/kg/injection, schedule: Q01DX009 (ip), vehicle: Klucel (hydroxypropylcellulose) (HPC)) 101 % of control; (endpoint: median survival time, dose: 25.0 mg/kg/injection, schedule: Q01DX009 (ip), vehicle: Klucel (hydroxypropylcellulose) (HPC)) 97 % of control; (endpoint: median survival time, dose: 50.0 mg/kg/injection, schedule: Q01DX009 (ip), vehicle: Klucel (hydroxypropylcellulose) (HPC)) 94 % of control; (endpoint: median survival time, dose: 100.0 mg/kg/injection, schedule: Q01DX009 (ip), vehicle: Klucel (hydroxypropylcellulose) (HPC)) 108 % of control; (endpoint: median survival time, dose: 200.0 mg/kg/injection, schedule: Q01DX009 (ip), vehicle: Klucel (hydroxypropylcellulose) (HPC)) 104 % of control.

With `CCCCOC(=O)CCCCC(=O)OCCCC`, the T/C reads like this: under setting [2], 96 % of control; under setting [4], 97 % of control; under setting [3], 105 % of control; under setting [5], 98 % of control; (endpoint: mean survival time, dose: 400.0 mg/kg/injection, schedule: Q01DX009 (ip), vehicle: saline with Tween-80) 110 % of control; under setting [6], 97 % of control.

Turning to `CCOC(=O)C(CC(C)C)NC(=O)C(N)Cc1ccc(N(CCCl)CCCl)cc1` (configuration not stated), the T/C (endpoint: mean survival time, dose: 1.25 mg/kg/injection, schedule: Q01DX009 (ip), vehicle: water) is 106 % of control; the T/C (endpoint: mean survival time, dose: 2.5 mg/kg/injection, schedule: Q01DX009 (ip), vehicle: water) was 115 % of control and 119 % of control; the T/C (endpoint: mean survival time, dose: 10.0 mg/kg/injection, schedule: Q01DX009 (ip), vehicle: water) is 169 % of control; the T/C (endpoint: mean survival time, dose: 20.0 mg/kg/injection, schedule: Q01DX009 (ip), vehicle: water) is 114 % of control; the T/C (endpoint: median survival time, dose: 3.6 mg/kg/injection, schedule: Q01DX009 (ip), vehicle: water) is 118 % of control; the T/C (endpoint: median survival time, dose: 16.67 mg/kg/injection, schedule: Q01DX009 (ip), vehicle: water) was 175 % of control. Moreover, the T/C (endpoint: median survival time, dose: 27.78 mg/kg/injection, schedule: Q01DX009 (ip), vehicle: water) was 118 % of control.

Regarding `CC1=C(/C=C/C(=O)CC(O)(C(F)(F)F)C(F)(F)F)C(C)(C)CCC1`, the T/C under setting [4] is 104 % of control, the T/C under setting [5] is 98 % of control and the T/C under setting [6] is 101 % of control.

Take `NCC(Cl)c1ccccc1` (configuration not stated): the T/C runs as follows: under setting [2], 97 % of control; under setting [3], 95 % of control.

As for `O=c1[nH]cc(N=Cc2ccccc2Cl)c(=O)[nH]1.[Cl][Pt][Cl]`, the T/C is 94 % of control (endpoint: mean survival time, dose: 3.13 mg/kg/injection, schedule: Q04DX003 (ip), vehicle: distilled water + Tween-80); 97 % of control (endpoint: mean survival time, dose: 6.25 mg/kg/injection, schedule: Q04DX003 (ip), vehicle: distilled water + Tween-80); 88 % of control (endpoint: mean survival time, dose: 12.5 mg/kg/injection, schedule: Q04DX003 (ip), vehicle: distilled water + Tween-80); 96 % of control (endpoint: mean survival time, dose: 25.0 mg/kg/injection, schedule: Q04DX003 (ip), vehicle: distilled water + Tween-80); 96 % of control (endpoint: mean survival time, dose: 50.0 mg/kg/injection, schedule: Q04DX003 (ip), vehicle: distilled water + Tween-80); 103 % of control (endpoint: mean survival time, dose: 100.0 mg/kg/injection, schedule: Q04DX003 (ip), vehicle: distilled water + Tween-80). In addition, for the setting “endpoint: mean survival time, dose: 200.0 mg/kg/injection, schedule: Q04DX003 (ip), vehicle: distilled water + Tween-80”, the T/C was 94 % of control.

As for `N#C/C(=C\C1CCC2OCOC2C1)C1CCC([N+](=O)[O-])CC1` (configuration not stated), the T/C was 97 % of control under setting [7], 87 % of control under setting [8] and 91 % of control under setting [9].
